Test system: hNCC(V231M)
Assay: 125I- uptake assay, hNCC(V231M) variant
Format: cell-based, human
Conditions: V231M polymorphism
Method: HEK293S cell lines, cultured in 293 Freestyle medium (Life Technologies; plus 10% fetal bovine serum), stably expressing hNCC and its variants were generated following published protocols. Cells were transfected using Lipofectamine 3000 (Invitrogen) with a pSBbi-RP-based plasmid containing hNCC or its variants and the SB100X vector. Puromycin (2 μg/mL; Gemini Bio-Products) was used for selection of stable cell lines.
To prepare for the uptake experiment, cells were plated at 0.5 × 10^6 cells/well in 24-well plates one day in advance. To activate NCC, cells were treated with a chloride-free hypotonic solution composed of 67.5 mM sodium-, 2.5 mM potassium-, 0.25 mM magnesium-, and 0.25 mM calcium-gluconate, as well as 7.5 mM HEPES pH 7.4 (buffered using Tris) at 37 °C for 10 min[72]. After the activation step, the experiments were carried out at room temperature. Ten minutes before the start of ^125I^− uptake, 70 μM Bumetanide (Thermo Scientific Chemicals) and 100 μM 4,4′-diisothiocyanatostilbene-2,2′-disulfonic acid (DIDS; Sigma) were added to suppress background iodide uptake activity. Indicated thiazide diuretics were also added to the indicated concentrations 10 min before the start of ^125I^− uptake. The original buffer was switched to an uptake buffer composed of 135 mM Na-gluconate, 5 mM K-gluconate, 1 mM Mg-gluconate, 1 mM Ca-gluconate, 70 μM bumetanide, 100 μM DIDS, 1 mM NaI, 0.25 μCi/ml Na^125I (American Radiolabeled Chemicals, Inc.), and 15 mM HEPES pH 7.4 (buffered using Tris), in the presence or absence of thiazide diuretics to initiate ^125I^− uptake. The ^125I^− uptake process lasted 1 h and was stopped by two rapid washes using ice-cold 110 mM MgCl2. Cells lysed using 1% sodium dodecyl sulfate (SDS) were analyzed by scintillation counting.
To calculate the fold change of the half-maximal inhibitory concentration (IC50) between hNCC(WT) and different hNCC variants, individual dose-response curves were normalized first using the smallest mean and the value of the lowest concentration as 0% and 100%, respectively. The normalized data were then fitted using the “EC50 shift” nonlinear regression in GraphPad Prism 10 with the shared EC50Control assigned to be the IC50 of hNCC(WT). The following constraints were used in the EC50 shift analysis. The EC50Control was set to be shared across all curves under analysis and constrained to be greater than 0. The EC50Ratio was constrained to be greater than 0. The bottom, top, and HillSlope were constrained to be 0, 100, and −1, respectively. For Fig. 1f, g and Supplementary Fig. 2d, GraphPad Prism 10 was used to perform curve fitting and IC50 calculation for normalized data using y = 100/(1 + (x/IC50)).

Question: `NS(=O)(=O)c1cc2c(cc1Cl)NCNS2(=O)=O` [hydrochlorothiazide] was tested. Which “sensitivity relative to hNCC(WT) (fold lower)” value did it give?
Answer: nearly as sensitive as the wild-type

From publication PMC12365235, “Molecular mechanisms of thiazide-like diuretics-mediated inhibition of the human Na-Cl cotransporter” (Nature Communications, 2025)
